Laboratory results taken from US20260234217A1, “USE OF BMP RECEPTOR ALK1 INHIBITORS IN OSTEOARTHRITIS THERAPIES” (The Regents of the University of California, priority 2023, published 2026).
Entries after “also recorded” stand apart in the source; their conditions may differ.

Columns and labels:
Format in all cases: in vivo, mouse
[1] = system: articular cartilage of DMM mice; assay: DMM model of post-traumatic OA: Safranin-O/Fast Green staining and OARSI scoring of articular cartilage damage; details: for articular cartilage damage (SOFG staining, OARSI scoring): treatment from the time of DMM surgery, weekly, compared to PBS
Experimental: FIG. 13. Growth differentiation factor 11 (GDF11, see, e.g., NCBI Reference Sequence: NP_005802.1) competes with BMP9/10 for binding to BMP type II receptors ACVRIIA or ACVRIIB, thereby preventing the association of BMP type I receptor ALK1 with ACVRIIA/B and decreasing BMP signaling. […] We tested this hypothesis by locally injecting GDF11 (50 ng/dose) into the knee joint space at mice with established post-traumatic OA. (A) Experimental Outline (B) Safranin-O/Fast Green (SOFG) Staining of sagittal sections of the knee joint, femur (top) and tibia (bottom) for proteoglycan (cartilage; red) and bone (green) at week 8 after DMM or Sham surgery. Mice were treated with either GDF11, or Phosphate Buffered Saline (PBS) after received surgery (n=5/group). 4-Week DMM mice were sacrificed 4 weeks after surgery and received no treatment (n=6). AC damage indicated by dotted line. (C-D) Osteoarthritis Research Society International (OARSI) scoring of AC damage in the (C) medial tibial plateau and (D) medial femoral condyle in representative sections of each treatment at week 4 or 8 after surgery. All data are shown as mean bar+/−standard deviation *p<0.05. Data analysis performed was one-way ANOVA. Scale 250 uM.
(§1) Mice (C57BL/6J) were purchased from The Jackson Laboratory. All mice were housed on a 12-hour light/dark cycle with unrestricted access to standard mouse food and water. The DMM model of injury induced OA was performed on mice at 12 weeks of age by opening the joint capsule and transecting the medial meniscotibial ligament in the right knee, destabilizing the medial meniscus(48). A sham operation was performed on the left knee of each mouse by observing the medial meniscotibial ligament but not transecting it. Mice were administered carprofen 5 mg/kg (Zoetis; 1041283) subcutaneously 30 minutes prior to surgery, immediately post-surgery, and 24 hours post-surgery to minimize pain.
(§2) Treatments were initiated either 1 day after DMM surgery once a week for 8 weeks, or 1 month after DMM surgery twice a week for 4 weeks. Mice were sacrificed at 20 weeks of age (2 months after surgery). To understand the level of articular cartilage damage 1 month after DMM surgery, a cohort of mice was sacrificed at 16 weeks old (FIG. 4).
Knee joint samples were harvested and fixed in 4% Paraformaldehyde for 3 days, and subsequently decalcified in formic acid (Statlab; 1414-32) for 3 days and embedded in paraffin. Sagittal sections 7 micrometers in thickness were taken and stained using Safranin-O (Sigma-Aldrich; S8884-25G), fast green (Sigma-Aldrich; F7258-25G), and hematoxylin (Fisherbrand; 245-656) using a standard histology protocol. Images were taken with the Olympus BX60 brightfield microscope using a 10× objective lens. Representative sections throughout the medial and lateral portion of side were chosen for histological analysis, resulting in 5 sections being imaged for both portions of the joint.
The 10 total sections per joint chosen for histology received randomized sample numbers and were given to three independent researchers who scored the level of cartilage damage based on OARSI guidelines (84). OARSI scores were analyzed with Prism 9 Software (GraphPad) using two-way ANOVA and Tukey's multiple comparisons test post-hoc. Scoring was performed by at least three experienced investigators blinded to treatment/genotype. Scores were averaged for the medial tibial plateau, medial femoral condyle, lateral tibial plateau, and lateral femoral condyle for each sample.

Collagen-X (COL10) = assay: Immunohistochemistry of articular cartilage in DMM mice
Experimental: as §1, §2
(§3) Seven micrometer-thick representative sections were chosen for immunohistochemistry, using a standard protocol (35). Tissue sections were deparaffinized, rehydrated, and washed in sodium borohydride (Sigma-Aldrich; 480886). Sections were then incubated with hyaluronidase (Sigma-Aldrich; H3505) and blocked with 5% serum in 1% PBST. Tissue sections were treated with primary antibodies to mouse ALK1 (R&D; AF770), Phospho-SMAD1/5 (Cell Signaling Technology; 9516), Phospho-SMAD2 (Cell Signaling Technology; 3108), MMP13 (Abcam; ab260040), and COL10 (Abcam; […]) and incubated overnight. Sections were then treated with a dilution of secondary antibody goat anti-rabbit IgG (H+L) Cross-Adsorbed Secondary Antibody, Alexa Flour 488 (Invitrogen; A-11008) or donkey anti-goat IgG (H+L) Cross-Adsorbed Secondary Antibody, Alexa Flour 488 (Invitrogen; A11055) for 4 hours. Finally, sections were incubated with 0.1 ug/mL of DAPI for 10 minutes before being mounted with Fluoro-Gel (Electron Microscopy Sciences; 17985-31). Images were taken with the Nikon Eclipse Ti fluorescent microscope.

[2] = system: Matrix Metalloproteinase-13 (MMP13); assay: as above
Experimental: as §1, §2, §3

pSMAD1/5 = assay: as above
Experimental: as §1, §2, §3

pSMAD2/3 = assay: as above
Experimental: as §1, §2, §3

[3] = system: OA associated pain in DMM mice; assay: Von Frey pain assessment (50% paw withdrawal threshold) in DMM mice
Experimental: In a functional assessment of BMP-KI and ALK1-Fc, we measured pain and sensitivity in mice following DMM surgery and treatment with BMP-KI and ALK1-Fc using Von Frey analysis. Mice underwent DMM surgery at 3 months of age and were treated with BMP-KI or ALK1Fc once a week for 8 weeks following surgery. Mice underwent Von Frey testing immediately prior to surgery, and each week following surgery. Von Frey testing involved exposure of the injured limb hindfoot plantar surface to a monofilament of a designated caliber (measured in grams). […] The 50% PWT was then calculated mathematically as previously described(54). A higher 50% paw withdrawal threshold indicates less sensitivity in the surgically treated limb. Mice undergoing sham surgery were also tested as a control.
Pain was assessed using the 50% paw withdrawal threshold (PWT) using Von Frey filaments and the up-and-down method as described(86, 87). Each mouse was tested three times by evaluators blinded to treatment group, and the average value was calculated. Whether or not each of the three acquired values is normal is based on the Jarque-Baera test. 4-5 mice were analyzed per treatment condition. Significance was assessed using two-way ANOVA and Tuckey's multiple comparisons test.

[4] = delayed treatment, week 8, vs vehicle-treated mice examined 4 weeks after surgery
[5] = treated 1 month after DMM surgery
[6] = treatment immediately after DMM surgery, week 8, listed as BMP-KI
[7] = delayed administration (1 month after DMM surgery)
[8] = treatment immediately after DMM surgery, week 8

## COc1cc(-c2cc(-c3ccc(N4CCNCC4)cc3)cnc2C)cc(OC)c1OC [LDN-214117]
[1]; [4]
  articular cartilage damage, femoral surface: less damage
  articular cartilage damage, tibial surface: less damage
[1]; treatment beginning 4 weeks after DMM, examined 8 weeks after surgery, vs vehicle-treated mice at 8 weeks
  articular cartilage damage (OARSI scoring): significantly less damage
[1]; week 8
  articular cartilage damage (SOFG staining, OARSI scoring): sufficient to prevent degradation of AC
[1]; week 8, listed as BMP-KI
  articular cartilage damage (SOFG staining, OARSI scoring): protection of articular cartilage
Collagen-X (COL10); [5]
  COL10 levels (percentage of cells expressing): significantly decreased
Collagen-X (COL10); [6]
  COL10 levels (percent of cells expressing): significantly decreases levels of expression; also recorded: visibly reduced
[2]; [5]
  MMP13 levels (percentage of cells expressing): attenuated to those of healthy sham control AC
[2]; [6]
  MMP13 levels (percent of cells expressing): significantly decreases levels of expression; also recorded: visibly reduced
pSMAD1/5; [7]
  percentage of cells positive for pSMAD1/5: reduced
pSMAD1/5; [8]
  pSMAD1/5 expression in articular cartilage: reduced to normal levels
pSMAD2/3; [7]
  percent cells positive for pSMAD2/3: not rescued
pSMAD2/3; [8]
  pSMAD2/3 expression in articular cartilage: not restored to normal levels
[3]; week 6 after surgery, vs DMM control
  pain (Von Frey 50% paw withdrawal threshold): did not exhibit an increase in pain
[3]; week 8
  pain (Von Frey) compared to mice that had received sham surgery: no significant difference
